In patent US8055452B2, “Identification, monitoring and treatment of disease and characterization of biological condition using gene expression profiles” (Life Technologies Corporation, priority 2001, dated 2011):

What was measured:
[1] = system: inflammation index (Inflammation Gene Expression Panel loci); settings: studies have shown; cited from earlier work
[2] = system: inflammation index (Inflammation Gene Expression Panel loci); assay: Inflammation index in rheumatoid arthritis patients under therapy; assay type: in vivo, human
Description: FIG. 17A further illustrates the consistency of inflammatory gene expression, illustrated here with respect to 7 loci of (of the Inflammation Gene Expression Panel of Table 1), in a population of 44 normal, undiagnosed blood donors. For each individual locus is shown the range of values lying within ±2 standard deviations of the mean expression value, which corresponds to 95% of a normally distributed population. Notwithstanding the great width of the confidence interval (95%), the measured gene expression value (ΔCT)—remarkably—still lies within 10% of the mean, regardless of the expression level involved. As described in further detail below, for a given biological condition an index can be constructed to provide a measurement of the condition. This is possible as a result of the conjunction of two circumstances: (i) there is a remarkable consistency of Gene Expression Profiles with respect to a biological condition across a population and (ii) there can be employed procedures that provide substantially reproducible measurement of constituents in a Gene Expression Panel giving rise to a Gene Expression Profile, under measurement conditions wherein specificity and efficiencies of amplification for all constituents of the panel are substantially similar and which therefore provides a measurement of a biological condition. Accordingly, a function of the expression values of representative constituent loci of FIG. 17A is here used to generate an inflammation index value, which is normalized so that a reading of 1 corresponds to constituent expression values of healthy subjects, as shown in the right-hand portion of FIG. 17A.
In FIG. 17B, an inflammation index value was determined for each member of a population of 42 normal undiagnosed blood donors, and the resulting distribution of index values, shown in the figure, can be seen to approximate closely a normal distribution, notwithstanding the relatively small population size. The values of the index are shown relative to a 0-based median, with deviations from the median calibrated in standard deviation units. Thus […] of the population lies within +1 and −1 of a 0 value.
FIG. 17C illustrates the use of the same index as FIG. 17B, where the inflammation median for a normal population has been set to zero and both normal and diseased subjects are plotted in standard deviation units relative to that median. An inflammation index value was determined for each member of a normal, undiagnosed population of 70 individuals (black bars). The resulting distribution of index values, shown in FIG. 17C, can be seen to approximate closely a normal distribution. Similarly, index values were calculated for individuals from two diseased population groups, (1) rheumatoid arthritis patients treated with methotrexate (MTX) who are about to change therapy to more efficacious drugs (e.g., TNF inhibitors) (hatched bars), and (2) rheumatoid arthritis patients treated with disease modifying anti-rheumatoid drugs (DMARDS) other than MTX, who are about to change therapy to more efficacious drugs (e.g., MTX). […] This figure thus illustrates the utility of an index to derived from Gene Expression Profile data to evaluate disease status and to provide an objective and quantifiable treatment objective. When these two populations were treated appropriately, index values from both populations returned to a more normal distribution (data not shown here).
This subject in fact was also on a regimen of an anti-inflammation steroid (prednisone) that was being tapered; within approximately one week after the inflammation index was sampled, the subject experienced a significant flare of clinical symptoms.

[3] = system: inflammation index (Inflammation Gene Expression Panel loci); assay: Inflammation index in subject with inflammatory bowel disease; assay type: in vivo, human; settings: single subject with inflammatory bowel disease
Description: FIG. 24 illustrates use of the inflammation index for assessment of a single subject suffering from inflammatory bowel disease, for whom treatment with Remicade was initiated in three doses. […] Again, the index, besides providing a measure of biological condition, is here used to measure the effectiveness of therapy (Remicade), as well as to provide a target for therapeutic intervention in terms of both dose and schedule.

[4] = system: Inflammation 48A and 48B loci; bacterial Gene Expression Panel of 24 genes; assay: Whole blood gene expression response to infectious agents or their products; assay type: cell-based; settings: E. coli filtrate with added polymyxin B vs filtrate alone
Description: FIGS. 27 through 41 illustrate the use of gene expression panels in early identification and monitoring of infectious disease. These figures plot the response, in expression products of the genes indicated, in whole blood, to the administration of various infectious agents or products associated with infectious agents. In each figure, the gene expression levels are “calibrated”, as that term is defined herein, in relation to baseline expression levels determined with respect to the whole blood prior to administration of the relevant infectious agent. […] The concentration change is shown ratiometrically, and the baseline level of 1 for a particular gene locus corresponds to an expression level for such locus that is the same, monitored at the relevant time after addition of the infectious agent or other stimulus, as the expression level before addition of the stimulus. […]
FIG. 27 uses a novel bacterial Gene Expression Panel of 24 genes, developed to discriminate various bacterial conditions in a host biological system. […] The final concentration immediately after administration of the stimulus was 100 ng/mL, and the ratiometric changes in expression, in relation to pre-administration levels, were monitored for each stimulus 2 and 6 hours after administration. […]
The responses were monitored at 2, 6, and 24 hours after administration. […]

[5] = system: 5 genes of the Inflammation Gene Expression Panel; assay: Whole blood samples after prednisone dose, challenged with lipopolysaccharide, gene expression profile; assay type: in vivo, human; settings: challenged with 0.1 ng/ml lipopolysaccharide
Procedure: The samples were taken at the time of administration (t=0) of the prednisone, then at two and 24 hours after such administration. Each whole blood sample was challenged by the addition of 0.1 ng/ml of lipopolysaccharide (a Gram-negative endotoxin) and a gene expression profile of the sample, post-challenge, was determined.

[6] = system: IL1A, IL1B, TNF, IFNG and IL10; assay: Acute Inflammation Index from whole blood gene expression of treated human subject; assay type: in vivo; settings: single patient with optic neuritis; oral prednisone at 60 mg per day tapered to 10 mg per day, after IV steroid
Description: (§1) For measuring the amount of a particular RNA in a sample, we have used methods known to one of ordinary skill in the art to extract and quantify transcribed RNA from a sample with respect to a constituent of a Gene Expression Panel. (See detailed protocols below. Also see PCT application publication number WO 98/24935 herein incorporated by reference for RNA analysis protocols). Briefly, RNA is extracted from a sample such as a tissue, body fluid, or culture medium in which a population of a subject might be growing. For example, cells may be lysed and RNA eluted in a suitable solution in which to conduct a DNAse reaction. First strand synthesis may be performed using a reverse transcriptase. Gene amplification, more specifically quantitative PCR assays, can then conducted and the gene of interest size calibrated against a marker such as 18S rRNA (Hirayama et al., Blood 92, 1998: 46-52). Samples are measured in multiple duplicates, for example, 4 replicates. Relative quantitation of the mRNA is determined by the difference in threshold cycles between the internal control and the gene of interest In an embodiment of the invention, quantitative PCR is performed using amplification, reporting agents and instruments such as those supplied commercially by Applied Biosystems (Foster City, Calif.). […]

[7] = system: Inflammation Gene Expression Panel of Table 1 (24 of 48 loci); assay: Inflammation Gene Expression Panel in whole blood after single oral dose of prednisone; assay type: in vivo; settings: single human subject, single 60 mg oral dose
Description: as §1

[8] = 10 stable rheumatoid arthritis patients treated with Enbrel (FIG. 22)

## Remicade: another TNF inhibitor
[1]
  infections in treated subjects: associated with serious infections in some subjects
[2]; 10 stable rheumatoid arthritis patients treated with Remicade (FIG. 23), all but one of the patients
  inflammation index: at or below normal
[2]; two of the 10 rheumatoid arthritis patients treated with Remicade (FIG. 23)
  inflammation index suggesting immunosuppressive response: abnormally low inflammation index
[3]; 24 hours after the first treatment
  inflammation index: returned to the normal range
[3]; just prior to the second dose
  inflammation index: elevated
[3]; prior to the third dose
  inflammation index: in the normal range

## polymyxin B
[4]
  effect on the response of IL1B locus to E. coli filtrate: did not affect the response

## Enbrel
[2]; [8]
  inflammation index: comes much closer to normal
  patients with inflammation index in the normal range: 80%

## C[C@]12C=CC(=O)C=C1CC[C@@H]1[C@@H]2C(=O)C[C@@]2(C)[C@H]1CC[C@]2(O)C(=O)CO [prednisone]
[5]; 24 hours post administration
  inhibitory effect on gene expression of the 5 loci: no longer apparent
  number of the 5 loci with gene expression higher than at t=0 (rebound effect): 3
[5]; two-hour sample
  gene expression of the 5 loci in relation to t=0: dramatically reduced gene expression
[6]
  acute inflammation index: goes up
[7]; 2 hr post dose
  inflammatory gene expression relative to baseline: decreased expression of most of inflammation-related gene loci
[7]; 24 hr post dose, loci reduced at 2 hours
  inflammatory gene expression relative to baseline: elevated gene expression levels

## CN(Cc1cnc2nc(N)nc(N)c2n1)c1ccc(C(=O)N[C@@H](CCC(=O)O)C(=O)O)cc1 [methotrexate]
[2]; 10 stable rheumatoid arthritis patients treated with methotrexate (FIG. 21)
  inflammation index: elevated compared to normal
[2]; rheumatoid arthritis patients treated with MTX who are about to change therapy (FIG. 17C)
  inflammation index values in comparison to the normal distribution: skewed upward
